The text below walks through data of paper PMC9114170, “Investigation of the Role of Hydrophobic Amino Acids on the Structure-Activity Relationship in the Antimicrobial Venom Peptide Ponericin L1” (The Journal of membrane biology, 2021).

Data set [1] has as its system Acinetobacter baumannii ATCC 19606. The data set is classed as cell-based. The note with it: highest concentration tested 15 μM. As to the method: (§1) Six different strains of bacteria were streaked on LB-Miller agar plates from a frozen glycerol stock derived from the original samples shipped from CGSC (Coli Genetic Stock Center, Yale University) or ATCC (American Type Culture Collection) (Escherichia coli D31 CGSC 5165 ([Burman, Nordstrom & Boman, 1968]), Staphylococcus aureus ATCC 35556. Pseudomonas aeruginosa PA-01 ATCC 47085, Acinetobacter baumannii ATCC 19606). For each of the strains a liquid overnight culture was prepared using a single colony into fresh LB broth and placed in a shaking incubator for ~ 18 hours at 37 C at 225 rpm. After the incubation period, a 1:200 dilution was made in fresh LB broth and then used for experimentation. Minimal Inhibitory Concentration (MIC) determinations were performed using mid-log phase bacteria diluted to 5 x 10^5 CFU/mL. Next, 90 μL of this diluted culture was then pipetted into a sterile 96-well plate that contains serially diluted aliquots of the peptide variants to consist of a total volume of 100 μL. This plate was then incubated for 18 hours at 37 C. Bacterial growth was determined by taking an OD600 measurement using a Spectramax M5 multimode plate reader post incubation. Minimal Bactericidal Concentration (MBC) was performed by taking 1 μL of the culture from the MIC plate and then pipetting it on to a fresh LB agar plate. After plating this culture, the plate was then incubated overnight at 37 C. MBC was determined by the growth or the lack of growth from each well on the agar plate.
(§2) The ability of L1 and the hydrophobic variants to act as antimicrobials was investigated using the Minimal Inhibitory Concentration (MIC) and Minimal Bactericidal Concentration (MBC) assays as previously described ([Wiegand, Hilpert & Hancock, 2008]). The MIC is determined as the lowest concentration of peptide required to inhibit bacterial growth in solution, while the MBC is the lowest concentration required to act in a bactericidal mechanism (as opposed to bacteriostatic) and is determined by plating MIC cultures on antimicrobial-free media. Peptides were screened against E. coli, S. aureus, A. baumannii, P. aeruginosa, B. subtilis, and K. pneumoniae.

Another data set relates to B. subtilis. The data set is classed as cell-based. Particulars: highest concentration tested 15 μM. As to the method:
as §1, §2

Data set [2] concerns Escherichia coli D31 CGSC 5165. The data set is classed as cell-based. The note with it: highest concentration tested 15 μM. On the procedure: as §1, §2
The subject of a further data set is K. pneumoniae. The data set is classed as cell-based. The note with it: highest concentration tested 15 μM. On the procedure: as §1, §2
In data set [3] the test system is Pseudomonas aeruginosa PA-01 ATCC 47085. The data set is classed as cell-based. The note with it: highest concentration tested 15 μM. On the procedure: as §1, §2
Data set [4] concerns Staphylococcus aureus ATCC 35556. The data set is classed as cell-based. The note with it: highest concentration tested 15 μM. As to the method: as §1, §2
The nature of data set [5]: Peptide binding to lipid vesicles by Trp emission barycenter shift. The data set is classed as physicochemical. The note with it: anionic and zwitterionic SUVs titrated into 2 μM peptide in PBS; λex 280 nm, λem 300 to 400 nm. On the procedure:
To form small unilamellar vesicles (SUVs) sonication or ethanol dilution methods were implemented ([Caputo & London, 2019]). In all cases, lipid vesicle preparation was the same. Depending on the lipid composition, appropriate volumes of lipids in chloroform were mixed in a glass tube and then allowed to dry under N2 gas for 15 minutes. The lipid films were then placed in a vacuum desiccator and allowed to dry further under a vacuum for 1 hour. For vesicles formed through ethanol dilution methods, 10 μL of pure ethanol was added to the film, and then vortex until the dissipation of the film. While continuing to vortex, the appropriate amount of PBS was added. For vesicles formed using the method of sonication, PBS was added directly to the tube while being vortexed to create multilamellar vesicles (MLVs). […]
All fluorescence spectroscopy experiments were preformed using a JY-Horiba Fluoromax4 instrument. […]
Considering that the first step in the mechanism of action of many AMPs is the binding to the bacterial cell surface, binding to model lipid vesicles was performed. […] The impact of lipid composition on binding to model vesicles was investigated using a simple vesicle titration experiment in which Trp fluorescence was measured after addition of lipid vesicles. […]

Where [6] appears, read: 1 μL of MIC plate culture on LB agar, overnight at 37 C.
[7] abbreviates: LB broth, 5 x 10^5 CFU/mL, 18 hours at 37 C, OD600.

Ends that are not written are not given here. Where only a bound is given, the exact number is not on record here.

FFKEFWTKMKGAGKAFFGKFKGFF [L1F]: in data set [1] (setting [6]), the “MBC A. baumannii” value was found to be 0.938 µM. Also, the “MIC A. baumannii” value in data set [1] (setting [7]) stood at 0.47 µM. Also, the “MBC B. subtilis” value with B. subtilis (setting [6]) was 1.88 µM. Besides, the “MIC B. subtilis” value against B. subtilis (setting [7]) stood at 1.88 µM. In addition, the “MBC E. coli” value in data set [2] (setting [6]) was above 15 µM. The “MIC E. coli” value in data set [2] (setting [7]) was found to be 0.94 µM. In addition, in the data set on K. pneumoniae (setting [6]), the “MBC K. pneumoniae” value was 7.5 µM. The “MIC K. pneumoniae” value against K. pneumoniae (setting [7]) stood at 1.88 µM. Moreover, the “MBC P. aeruginosa” value in data set [3] (setting [6]) is above 15 µM. Moreover, the “MIC P. aeruginosa” value in data set [3] (setting [7]) is 7.5 µM. Further, the “MBC S. aureus” value in data set [4] (setting [6]) was determined as 1.88 µM. For the same sequence, the “MIC S. aureus” value in data set [4] (setting [7]) worked out at 0.94 µM. The “Extent of spectral shift (Trp emission barycenter) on binding lipid vesicles” value in data set [5] is ~ 14 nm.
